These results are taken from patent US9637453B2, “3-spirocyclic-6-hydroxamic acid tetralins as HDAC inhibitors” (Forma Therapeutics, Inc., priority 2015, dated 2017).

In experiment [1] the target is T1, Full length human recombinant HDAC6 (Homo sapiens, UniProt Q9UBN7).
T1 construct: Full length human recombinant HDAC6 and HDAC11 proteins were expressed in baculoviral system
T1 sequence (Q9UBN7 1-1215): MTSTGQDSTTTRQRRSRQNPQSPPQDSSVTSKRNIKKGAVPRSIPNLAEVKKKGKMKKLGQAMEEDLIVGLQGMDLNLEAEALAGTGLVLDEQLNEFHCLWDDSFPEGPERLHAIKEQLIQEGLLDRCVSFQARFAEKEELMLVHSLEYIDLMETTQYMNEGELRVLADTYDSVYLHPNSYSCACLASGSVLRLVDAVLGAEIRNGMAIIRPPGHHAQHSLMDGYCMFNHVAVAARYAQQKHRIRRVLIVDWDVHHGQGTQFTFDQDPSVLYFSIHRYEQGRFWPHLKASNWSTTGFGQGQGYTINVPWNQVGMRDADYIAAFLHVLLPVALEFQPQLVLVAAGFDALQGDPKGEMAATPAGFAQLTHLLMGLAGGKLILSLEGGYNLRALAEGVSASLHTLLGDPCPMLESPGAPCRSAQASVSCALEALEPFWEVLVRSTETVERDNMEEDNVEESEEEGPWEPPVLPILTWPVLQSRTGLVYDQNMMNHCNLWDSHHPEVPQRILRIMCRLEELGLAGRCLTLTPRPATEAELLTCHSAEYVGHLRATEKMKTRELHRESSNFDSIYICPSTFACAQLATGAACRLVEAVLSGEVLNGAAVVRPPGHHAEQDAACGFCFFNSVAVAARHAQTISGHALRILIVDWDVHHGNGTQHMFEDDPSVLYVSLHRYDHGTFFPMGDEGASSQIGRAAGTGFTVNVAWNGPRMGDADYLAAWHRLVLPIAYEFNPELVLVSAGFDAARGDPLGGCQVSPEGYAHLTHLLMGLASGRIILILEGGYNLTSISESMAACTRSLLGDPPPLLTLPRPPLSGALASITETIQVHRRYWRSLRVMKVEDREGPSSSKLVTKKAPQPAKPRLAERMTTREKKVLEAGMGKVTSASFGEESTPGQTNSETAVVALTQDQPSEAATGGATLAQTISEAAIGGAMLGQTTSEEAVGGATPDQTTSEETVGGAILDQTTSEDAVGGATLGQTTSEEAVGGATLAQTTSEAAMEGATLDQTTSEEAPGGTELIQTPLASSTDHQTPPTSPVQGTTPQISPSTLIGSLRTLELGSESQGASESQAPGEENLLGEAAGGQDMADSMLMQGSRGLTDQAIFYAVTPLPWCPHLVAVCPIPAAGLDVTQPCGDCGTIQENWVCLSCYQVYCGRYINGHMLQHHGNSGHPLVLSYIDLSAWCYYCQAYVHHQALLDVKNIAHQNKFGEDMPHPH
As to the kind of experiment: In vitro histone deacetylase assay, enzymatic HDAC6 (electrophoretic mobility shift assay). Format: biochemical. As to conditions: 1 nM HDAC6; 2 μM peptide substrate FAM-RHKK(Ac)—NH2; 25° C.; 12 concentrations; read-out: HDAC6 Activity Range (IC50). In short, it runs like this:
(§1)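 Baculovirus-expressed full-length enzymes (HDAC6 1 nM, FAM-RHKK(Ac)-NH2; HDAC11 10 nM, FAM-RHKK(tri-fluor-Ac)-NH2), 2 μM substrate, HEPES pH 7.5, 25°C, 12-point 3× dilutions. Product/substrate separated by microfluidic mobility shift after SDS quench; IC50 from 4-parameter fit, reported as +/++/+++ bins.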

Experiment [2] addresses T2, Full length human recombinant HDAC11 (Homo sapiens, UniProt Q96DB2).
T2 construct: Full length human recombinant HDAC6 and HDAC11 proteins were expressed in baculoviral system
T2 sequence (Q96DB2 1-347): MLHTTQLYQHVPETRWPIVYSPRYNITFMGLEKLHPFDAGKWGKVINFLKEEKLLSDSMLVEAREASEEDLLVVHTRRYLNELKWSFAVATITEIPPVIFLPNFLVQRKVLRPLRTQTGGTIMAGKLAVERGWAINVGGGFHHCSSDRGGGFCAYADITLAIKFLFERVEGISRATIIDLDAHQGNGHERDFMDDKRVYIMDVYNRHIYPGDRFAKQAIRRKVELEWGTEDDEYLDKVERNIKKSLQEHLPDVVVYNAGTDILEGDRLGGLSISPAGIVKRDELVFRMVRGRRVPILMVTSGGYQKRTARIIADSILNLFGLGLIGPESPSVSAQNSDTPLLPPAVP
The experiment in a line: In vitro histone deacetylase assay, enzymatic HDAC11 (electrophoretic mobility shift assay). The class given is biochemical. The following applies: 10 nM HDAC11; 2 μM peptide substrate FAM-RHKK(tri-fluor-Ac)—NH2; 25° C.; 12 concentrations; read-out: HDAC11 Activity Range (IC50). In short, it runs like this:
as §1
On the technique in general: A gel shift assay detects complexes by their altered migration in electrophoresis.

The term IC50 denotes the concentration that inhibits the measured activity by half. Take `O=C(NO)c1ccc2c(c1)C[C@]1(CC2)CCN(c2ccc3nccn3c2)C1=O` [Compound I-110, (R)—N-hydroxy-1′-(imidazo[1,2-a]pyridin-6-yl)-2′-oxo-3,4-dihydro-1H-spiro[naphthalene-2,3′-pyrrolidine]-7-carboxamide]: the IC50 in experiment [1] was no more than 100 nM; in experiment [2] it was 100 to 500 nM.

For the molecule `O=C(NO)c1ccc2c(c1)C[C@]1(CC2)CCN(c2cnc3ccccn23)C1=O` [Compound I-111, (R)—N-hydroxy-1′-(imidazo[1,2-a]pyridin-3-yl)-2′-oxo-3,4-dihydro-1H-spiro[naphthalene-2,3′-pyrrolidine]-7-carboxamide], the values for the IC50 in experiment [1] and in experiment [2] were no more than 100 nM and 100 to 500 nM, respectively.

In the case of `O=C(NO)c1ccc2c(c1)C[C@@]1(CC2)CCN(c2ccc(Cl)c(Cl)c2)C1=O` [Compound I-112, (S)-1′-(3,4-dichlorophenyl)-N-hydroxy-2′-oxo-3,4-dihydro-1H-spiro[naphthalene-2,3′-pyrrolidine]-7-carboxamide], the values for the IC50 in experiment [1] and in experiment [2] were no more than 100 nM and greater than 500 nM, respectively.

Take `Cc1ccc(N2CC[C@@]3(CCc4ccc(C(=O)NO)cc4C3)C2=O)c(C)c1` [Compound I-113, (S)-1′-(2,4-dimethylphenyl)-N-hydroxy-2′-oxo-3,4-dihydro-H-spiro[naphthalene-2,3′-pyrrolidine]-7-carboxamide]: the IC50 in experiment [1] was no more than 100 nM; in experiment [2], greater than 500 nM.

As for `COc1ccccc1N1CC[C@@]2(CCc3ccc(C(=O)NO)cc3C2)C1=O` [Compound I-114, (S)—N-hydroxy-1′-(2-methoxyphenyl)-2′-oxo-3,4-dihydro-1H-spiro[naphthalene-2,3′-pyrrolidine]-7-carboxamide], the values for the IC50 in experiment [1] and in experiment [2] were no more than 100 nM and greater than 500 nM, respectively.

In the case of `O=C(NO)c1ccc2c(c1)C[C@@]1(CC2)CCN(c2ccc3c(c2)OCO3)C1=O` [Compound I-115, (S)-1′-(benzo[d][1,3]dioxol-5-yl)-N-hydroxy-2′-oxo-3,4-dihydro-1H-spiro[naphthalene-2,3′-pyrrolidine]-7-carboxamide], the IC50 in experiment [1] was no more than 100 nM; in experiment [2], greater than 500 nM.

`O=C(NO)c1ccc2c(c1)C[C@@]1(CC2)CCN(c2ccc(Oc3ccccc3)cc2)C1=O` [Compound I-116, (S)—N-hydroxy-2′-oxo-1′-(4-phenoxyphenyl)-3,4-dihydro-1H-spiro[naphthalene-2,3′-pyrrolidine]-7-carboxamide]: the IC50 was no more than 100 nM in experiment [1] and greater than 500 nM in experiment [2].

On to `O=C(NO)c1ccc2c(c1)C[C@]1(CC2)CCN(c2cccc(OCCN3CCOCC3)c2)C1=O` [Compound I-117, (R)—N-hydroxy-1′-(3-(2-morpholinoethoxy)phenyl)-2′-oxo-3,4-dihydro-1H-spiro[naphthalene-2,3′-pyrrolidine]-7-carboxamide], for which the IC50 is no more than 100 nM in experiment [1] and greater than 500 nM in experiment [2].

For the molecule `O=C(NO)c1ccc2c(c1)C[C@@]1(CC2)CCN(c2cnc3ccccc3c2)C1=O` [Compound I-118, (S)—N-hydroxy-2′-oxo-1′-(quinolin-3-yl)-3,4-dihydro-1H-spiro[naphthalene-2,3′-pyrrolidine]-7-carboxamide], the IC50 is no more than 100 nM in experiment [1] and greater than 500 nM in experiment [2].

Regarding `CN(C)CCc1ccc(N2CC[C@@]3(CCc4ccc(C(=O)NO)cc4C3)C2=O)cc1` [Compound I-119, (S)-1′-(4-(2-(dimethylamino)ethyl)phenyl)-N-hydroxy-2′-oxo-3,4-dihydro-1H-spiro[naphthalene-2,3′-pyrrolidine]-7-carboxamide], the IC50 in experiment [1] was no more than 100 nM; in experiment [2], greater than 500 nM.

Consider `CN1CC[C@]2(CCc3ccc(C(=O)NO)cc3C2)C1=O` [Compound I-120, (R)—N-hydroxy-1′-methyl-2′-oxo-3,4-dihydro-1H-spiro[naphthalene-2,3′-pyrrolidine]-7-carboxamide], for which the IC50 in experiment [1] was no more than 100 nM; in experiment [2], greater than 500 nM.

For `CN1CC[C@@]2(CCc3ccc(C(=O)NO)cc3C2)C1=O` [Compound I-121, (S)—N-hydroxy-1′-methyl-2′-oxo-3,4-dihydro-1H-spiro[naphthalene-2,3′-pyrrolidine]-7-carboxamide], the IC50 in experiment [1] was no more than 100 nM; in experiment [2], greater than 500 nM.

On to `Cc1ccc(CN2CC[C@@]3(CCc4ccc(C(=O)NO)cc4C3)C2=O)cc1` [Compound I-122, (S)—N-hydroxy-1′-(4-methylbenzyl)-2′-oxo-3,4-dihydro-1H-spiro[naphthalene-2,3′-pyrrolidine]-7-carboxamide], for which the IC50 in experiment [1] and in experiment [2] was no more than 100 nM each time.

Take `Cc1ccc(CN2CC[C@]3(CCc4ccc(C(=O)NO)cc4C3)C2=O)cc1` [Compound I-123, (R)—N-hydroxy-1′-(4-methylbenzyl)-2′-oxo-3,4-dihydro-1H-spiro[naphthalene-2,3′-pyrrolidine]-7-carboxamide]: the IC50 in experiment [1] was no more than 100 nM; in experiment [2], greater than 500 nM.

With `O=C(NO)c1ccc2c(c1)C[C@@]1(CC2)CCN(Cc2ccc(C(F)(F)F)c(F)c2)C1=O` [Compound I-124, (S)-1′-(3-fluoro-4-(trifluoromethyl)benzyl)-N-hydroxy-2′-oxo-3,4-dihydro-1H-spiro[naphthalene-2,3′-pyrrolidine]-7-carboxamide], the IC50 in experiment [1] and in experiment [2] was no more than 100 nM in each case.

As for `O=C(NO)c1ccc2c(c1)C[C@]1(CC2)CCN(Cc2ccc(C(F)(F)F)c(F)c2)C1=O` [Compound I-125, (R)-1′-(3-fluoro-4-(trifluoromethyl)benzyl)-N-hydroxy-2′-oxo-3,4-dihydro-1H-spiro[naphthalene-2,3′-pyrrolidine]-7-carboxamide], the IC50 in experiment [1] is no more than 100 nM; in experiment [2] it was 100 to 500 nM.

With `O=C(NO)c1ccc2c(c1)C[C@@]1(CC2)CCN(Cc2ccc(C(F)(F)F)cc2)C1=O` [Compound I-126, (S)—N-hydroxy-2′-oxo-1′-(4-(trifluoromethyl)benzyl)-3,4-dihydro-1H-spiro[naphthalene-2,3′-pyrrolidine]-7-carboxamide], the IC50 in experiment [1] and in experiment [2] was no more than 100 nM each time.

Take `O=C(NO)c1ccc2c(c1)C[C@]1(CC2)CCN(Cc2ccc(C(F)(F)F)cc2)C1=O` [Compound I-127, (R)—N-hydroxy-2′-oxo-1′-(4-(trifluoromethyl)benzyl)-3,4-dihydro-1H-spiro[naphthalene-2,3′-pyrrolidine]-7-carboxamide]: the results for the IC50 in experiment [1] and in experiment [2] were no more than 100 nM and 100 to 500 nM, respectively.

As for `O=C(NO)c1ccc2c(c1)C[C@]1(CC2)CC(=O)N(Cc2ccc(F)cc2)C1` [Compound I-128, (R)-1′-(4-fluorobenzyl)-N-hydroxy-5′-oxo-3,4-dihydro-1H-spiro[naphthalene-2,3′-pyrrolidine]-7-carboxamide], the figures for the IC50 in experiment [1] and in experiment [2] were no more than 100 nM and greater than 500 nM, respectively.

As for `O=C(NO)c1ccc2c(c1)C[C@@]1(CC2)CC(=O)N(Cc2ccc(F)cc2)C1` [Compound I-129, (S)-1′-(4-fluorobenzyl)-N-hydroxy-5′-oxo-3,4-dihydro-1H-spiro[naphthalene-2,3′-pyrrolidine]-7-carboxamide], the IC50 in experiment [1] was no more than 100 nM; in experiment [2], greater than 500 nM.

With `CN1C[C@@]2(CCc3ccc(C(=O)NO)cc3C2)CC1=O` [Compound I-130, (R)—N-hydroxy-1′-methyl-5′-oxo-3,4-dihydro-1H-spiro[naphthalene-2,3′-pyrrolidine]-7-carboxamide], the IC50 in experiment [1] is no more than 100 nM; in experiment [2], greater than 500 nM.
